For one series, the system named is männlichen Albinoratten. Put plainly: Conditioned shock avoidance (lever pressing) in rats. Format: in vivo, Ratte. Particulars: for Schockvermeidungsreaktion der Ratte: doses down to 2,5 mg/kg/Tag. From the text:
Die Verbindungen der Erfindung zeigen wertvolle pharmakologische, z.B. stimulierende und antidepressive Wirkungen. Diese können in Tierversuchen, vorzugsweise an Säugetieren, wie Ratten oder Affen, als Testobjekte nachgewiesen werden. Die Verbindungen der Erfindung können ihnen enteral, z.B. oral, oder parenteral, z.B. subkutan, intraperitoneal oder intravenös, z.B. in Form von wässerigen Lösungen oder Stärke enthaltenden Suspensionen, verabreicht werden. Die verwendete Dosis kann in einem Bereich von ungefähr zwischen 0,1 und 100 mg/kg/Tag, vorzugsweise ungefähr 1 und 50 mg/kg/Tag, insbesondere ungefähr 5 und 25 mg/kg/Tag liegen. Die genannten stimulierenden und antidepressiven Wirkungen können z.B. an männlichen Albinoratten beobachtet werden. Die Tiere haben freien Zugang zu Futter und Wasser, mit Ausnahme der Versuchsdauer. Die Untersuchung des Tierverhaltens wird in normierten, schallisolierten Konditionierungskammern, welche einen Schalthebel enthalten, durchgeführt. Gemäss dem Test werden die Ratten durch das Bodengitter der Kammer elektrischen Schocks ausgesetzt. Der Hebel ist an eine programmierte Einrichtung, welche die Abgabe von elektrischen Schocks reguliert, angeschlossen. Die Anzahl der Betätigung des Hebels und die Anzahl der erlittenen Schocks werden registriert. Die Ratten werden vorher dazu trainiert, diesem elektrischen Impuls durch Drücken der Taste auszuweichen. Dann wird der Apparat so eingestellt, dass jede Hebelbetätigung den Schockeintritt um 30 Sekunden verschiebt. Vergisst das Tier den Hebel innerhalb dieses Zeitintervalls zu drücken, so werden alle 15 Sekunden kurze elektrische Schocks abgegeben, bis das Tier den Hebel wieder betätigt. Vor jeder Testperiode werden die Ratten, um sich zu erwärmen, 15 Minuten in den Testkammern gehalten. Während dieser Zeit wird die Anzahl der Hebelbetätigungen nicht registriert. Unmittelbar nach dieser Periode werden die Test-Verbindungen entweder in Kochsalzlösung oder in 3Xiger Maisstärke-Suspension in 5%igem wässerigem Polyäthylenglykol-400, welches auf 10 ml einen Tropfen Polyäthylen-20- sorbitanmonooleat enthält, entweder oral oder intraperitoneal vorabreicht. […] Diese erfindungsgemässe Verbindung zeigt einen einzigartigen Wirkungsmechanismus.

In the next series the test system is biogener Amine. Briefly: Uptake inhibition of biogenic amines (statement, no method).
The next series concerns antihistaminische. Briefly: Antihistaminic action (statement, no method).
A further series has as its system anticholinergische. Briefly: Anticholinergic action (statement, no method).
Series [1] deals with präsynaptischerc(-noradrenergischer Blocker). Briefly: Presynaptic alpha-noradrenergic blockade (statement, no method). Particulars: compared in kind with Mianserin.
For series [2], the system named is Totenkopf-Aeffchen (squirrel monkeys). Put plainly: Conditioned shock avoidance (Skinner cage) in squirrel monkeys. Format: in vivo. Particulars: oral in 0,9%iger wässeriger Kochsalzlösung, doses down to 2,5 mg/kg/Tag; four-hour session. From the text:
In einem anderen Test werden Totenkopf-Aeffchen (squirrel monkeys) durch Training dazugebracht, den Hebel in einem solchen Skinner-Käfig zu drücken, um dem elektrischen Schock, der auf die Füsse durch das Bodengitter verabreicht wird, auszuweichen. Jeder Tastendruck verschiebt den elektrischen Schock um 20 Sekunden. Versäumt der Affe innerhalb von 20 Sekunden die Taste zu drücken, so wird er kurze (0,5 Sekunden) elektrische Schocks alle 20 Sekunden bis zu seinem nächsten Tastendruck erleiden. Unter Kontrollbedingungen drücken die Affen den Hebel mit einer verhältnismässig stetigen Geschwindigkeit, so dass sie selten mehr als 6 Schocks während einer vierstündigen Versuchsperiode erhalten. Man bestimmt die Anzahl der Vermeidungsreaktionen sowie die Anzahl der erhaltenen Schocks. […] Der Wirkstoff wird in niedrigen Dosen bis hinunter zu 2,5 mg/kg/Tag verabreicht. Die Untersuchung zwecks Gewinnung von Kontrollwerten wird unter Verwendung von Kochsalzlösung allein, ein Tag vor der Untersuchung der Wirkstoffe, durchgeführt.

Counter-ions that a name gives are not always drawn.

As to `COC(=O)C(c1ccccc1)C1CCCCN1` (stereo not shown) [Methylphenidat, reference compound], the “Zunahme der Schockvermeidungsreaktion” value with männlichen Albinoratten (5 mg/kg/Tag, intraperitoneal) is reported as “Zunahme der Schockvermeidungsreaktion”.
For `O=C1NCCN1C1CCN(CCC2COc3ccccc3O2)CC1` (racemic) [1-[1-[2-(1,4-Benzodioxan-2-yl)-äthyl]-4-piperidyl]-2-imidazolidinon], in the series with biogener Amine, the “Aufnahmehemmer biogener Amine” value was “kein Aufnahmehemmer biogener Amine”. The “Zunahme der Schockvermeidungsreaktion, comparison with Methylphenidat” value in the series on männlichen Albinoratten (compared with 5 mg/kg/Tag Methylphenidat intraperitoneal) is listed as “vorteilhaft”. Moreover, in the series on männlichen Albinoratten (intraperitoneal), the “Schockvermeidungsreaktion der Ratte” value is “erhöht signifikant”. Further, the “antihistaminische Wirkung” value in the series on antihistaminische is recorded as “noch eine antihistaminische Wirkung”. Besides, the “anticholinergische Wirkung” value in the series with anticholinergische is reported as “weder eine anticholinergische”. The “präsynaptischerc(-noradrenergischer Blocker)” value in series [1] was “kein präsynaptischerc(-noradrenergischer Blocker”.
As to `O=C1NCCN1C1CCN(CC[C@H]2COc3ccccc3O2)CC1` [1-(S)-Hydrobromid], in series [2], the “Anzahl der erlittenen Schocks” value is recorded as “positive Aenderungen” and the “Ausmass der Vermeidungsreaktionen” value was “positive Aenderungen”. In the series with männlichen Albinoratten (intraperitoneal), the “Schockvermeidungsreaktion der Ratte” value was “erhöht signifikant”.
